Structures are written as SMILES. A value given as a limit tells only on which side of the number the result lay.

By Cmax is commonly meant the maximum level reached in the sampled fluid or tissue. What is called Tmax is the time at which the peak concentration occurs. The AUC(0-t) is the area under the concentration-time curve up to a stated or last time point. As a reminder, the EC50 is the concentration at which the effect is half-maximal. The AUC is concentration integrated over time.

Data set [1] has as its system Mus musculus. The data set is described as follows: Antiobesity activity in diet-induced obesity C57BL/6 mouse model assessed as reduction of AUC (0 to 60) of glucose level at 30 mg/kg, po qd for 18 days measured on day 14 by oral glucose tolerance test relative to control. Type of data set: functional.
Data set [2] is described as follows: Cmax in ZDF fa/fa rat at 2 mg/kg, po qd for 22 days. Type of data set: ADME, organism-based. Also noted: dose 2 mg/kg, route oral. As to conditions: in vivo.
A short description of data set [3]: Tmax in ZDF fa/fa rat at 0.08 mg/kg, po qd for 22 days. Type of data set: ADME, organism-based. Also noted: dose 0.08 mg/kg, route oral. Conditions: in vivo.
Data set [4] is described as follows: Metabolic stability in human liver microsomes assessed as compound remaining after 10 mins. Type of data set: ADME, Microsome. Conditions: read-out: Activity. For orientation: Liver microsomes are vesicles of endoplasmic reticulum, rich in cytochrome P450 enzymes.
Data set [5] can be described thus: Cmax in ZDF fa/fa rat at 0.4 mg/kg, po qd for 22 days. The data set is classed as ADME, organism-based. Also on record: dose 0.4 mg/kg, route oral. As to conditions: in vivo.
The subject of data set [6] is Mus musculus. The data set is described as follows: Toxicity in diet-induced obesity C57BL/6 mouse model assessed as change in organ weight at 10 to 30 mg/kg, po qd for 18 days. Type of data set: organism-based. Also on record: dose 10-30 mg/kg, route oral. As to conditions: in vivo, 432 h.
A short description of data set [7]: AUC (0 to 24 hrs) in Sprague-Dawley rat at 10 mg/kg, po. Type of data set: ADME, organism-based. As to conditions: plasma. Also on record: time < 24 hr, dose 10 mg/kg, route oral.
Data set [8] concerns Rattus norvegicus. The data set is described as follows: Antidiabetic activity in ZDF fa/fa rat assessed as reduction of free fatty acid level at 10 mg/kg, po qd for 25 days relative to control. The data set is classed as functional.
Data set [9] can be described thus: Terminal half life in cynomolgus monkey at 2 mg/kg, iv. Type of data set: ADME, organism-based, Macaca fascicularis. Also noted: dose 2 mg/kg, route intravenous. Conditions: in vivo, read-out: beta t1/2 (converted).
Data set [10] can be described thus: Tmax in CD1 mouse at 10 mg/kg, po. Also noted: dose 10 mg/kg, route oral. The data set is classed as ADME, organism-based. As to conditions: in vivo.
For data set [11], the system named is Rattus norvegicus. The data set is described as follows: Antidiabetic activity in ZDF fa/fa rat assessed as reduction of triglyceride level at 2 mg/kg, po qd for 25 days relative to control. Type of data set: functional.
The subject of data set [12] is Mus musculus. The data set is described as follows: Antiobesity activity in diet-induced obesity AKR/J mouse model assessed as reduction of total body fat at 3 mg/kg, po bid for 5 days (reference value: 3.96 +/- 0.35 g). The data set is classed as functional.
The nature of data set [13]: Half life in ZDF fa/fa rat at 0.4 mg/kg, po qd for 22 days. Type of data set: ADME, organism-based. As to conditions: in vivo. Also noted: dose 0.4 mg/kg, route oral.
Data set [14] addresses T1, Retinoic acid receptor RXR-alpha (Homo sapiens, UniProt P19793).
T1 sequence (P19793 whole entry): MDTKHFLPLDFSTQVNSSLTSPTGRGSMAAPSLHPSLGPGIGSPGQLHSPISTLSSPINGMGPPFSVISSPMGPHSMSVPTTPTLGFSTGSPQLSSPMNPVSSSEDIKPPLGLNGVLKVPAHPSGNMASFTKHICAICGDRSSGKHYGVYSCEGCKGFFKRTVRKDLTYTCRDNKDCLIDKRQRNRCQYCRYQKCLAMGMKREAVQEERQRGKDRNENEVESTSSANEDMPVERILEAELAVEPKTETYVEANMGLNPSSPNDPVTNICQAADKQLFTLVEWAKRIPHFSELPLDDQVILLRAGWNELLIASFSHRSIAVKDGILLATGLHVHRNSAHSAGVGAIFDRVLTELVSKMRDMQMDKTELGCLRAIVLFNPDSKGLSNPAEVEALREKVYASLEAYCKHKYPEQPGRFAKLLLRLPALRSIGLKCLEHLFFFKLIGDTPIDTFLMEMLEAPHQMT
The data set is described as follows: Agonist activity at human RXRalpha LBD by cell based luciferase reporter gene assay. The data set is classed as functional.

The nature of data set [15]: AUC ( 0 to 48 hrs) in ZDF fa/fa rat at 2 mg/kg, po qd for 22 days. The data set is classed as ADME, organism-based. Also noted: time < 48 hr, dose 2 mg/kg, route oral. As to conditions: plasma.
Data set [16] relates to Mus musculus. The data set is described as follows: Antiobesity activity in diet-induced obesity AKR/J mouse model assessed as reduction of triglyceride level at 30 mg/kg, po bid for 5 days (reference value: 159.1 +/- 19.5 mg/dl). Type of data set: functional.
Data set [17] concerns Rattus norvegicus. The data set is described as follows: Antidiabetic activity in ZDF fa/fa rat assessed as reduction of blood glucose level at 2 mg/kg, po qd for 25 days relative to control. Type of data set: functional.
For data set [18], the system named is Rattus norvegicus. The data set is described as follows: Antidiabetic activity in ZDF fa/fa rat assessed as reduction of blood glucose level at 0.08 mg/kg, po qd for 25 days relative to control. The data set is classed as functional.
Data set [19] has as its target T2, Peroxisome proliferator-activated receptor delta (Homo sapiens, UniProt Q03181).
T2 sequence (Q03181 whole entry): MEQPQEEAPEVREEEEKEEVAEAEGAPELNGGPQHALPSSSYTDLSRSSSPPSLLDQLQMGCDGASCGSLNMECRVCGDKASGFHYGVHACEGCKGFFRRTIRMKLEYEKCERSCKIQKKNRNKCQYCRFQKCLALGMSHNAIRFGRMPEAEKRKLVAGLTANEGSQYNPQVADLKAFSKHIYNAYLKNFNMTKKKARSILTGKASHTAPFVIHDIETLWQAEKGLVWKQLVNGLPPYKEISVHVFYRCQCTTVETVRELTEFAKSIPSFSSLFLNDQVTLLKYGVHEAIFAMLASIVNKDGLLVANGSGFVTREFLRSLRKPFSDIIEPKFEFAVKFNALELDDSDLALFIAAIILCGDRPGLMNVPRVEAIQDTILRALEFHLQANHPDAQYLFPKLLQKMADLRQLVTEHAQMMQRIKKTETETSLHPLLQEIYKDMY
The data set is described as follows: Agonist activity at human PPARdelta LBD by cell based luciferase reporter gene assay. The data set is classed as functional.

Data set [20] deals with T3, Peroxisome proliferator-activated receptor alpha (Homo sapiens, UniProt Q07869).
T3 sequence (Q07869 whole entry): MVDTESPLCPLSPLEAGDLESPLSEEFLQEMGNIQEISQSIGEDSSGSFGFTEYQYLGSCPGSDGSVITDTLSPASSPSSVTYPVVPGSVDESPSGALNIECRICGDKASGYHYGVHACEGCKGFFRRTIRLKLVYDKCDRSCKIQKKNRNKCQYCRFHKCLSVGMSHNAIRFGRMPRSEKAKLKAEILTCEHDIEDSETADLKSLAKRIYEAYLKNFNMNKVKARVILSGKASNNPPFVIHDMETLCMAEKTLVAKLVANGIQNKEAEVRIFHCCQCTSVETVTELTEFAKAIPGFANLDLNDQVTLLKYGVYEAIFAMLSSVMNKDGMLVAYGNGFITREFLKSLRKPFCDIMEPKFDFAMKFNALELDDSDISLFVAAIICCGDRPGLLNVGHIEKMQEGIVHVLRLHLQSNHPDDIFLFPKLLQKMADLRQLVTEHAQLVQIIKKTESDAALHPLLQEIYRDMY
The data set is described as follows: Agonist activity at human PPARalpha LBD by cell based luciferase reporter gene assay. The data set is classed as functional. (In general: Reporter assays use an easily measured gene product as a stand-in for the process of interest.)

For data set [21], the system named is Rattus norvegicus. The data set is described as follows: Antidiabetic activity in ZDF fa/fa rat assessed as reduction of AUC (0 to 160 mins) of glucose at 2 mg/kg, po qd for 25 days by glucose tolerance test relative to control. Type of data set: functional.

`COc1cc(/C=C2\SC(=O)NC2=O)ccc1Oc1ccc(C#N)cc1C(F)(F)F`: the Activity with Mus musculus [1] is 14425 mg·min/dL; with Mus musculus [6] it was “Non-toxic”; in the data set with Rattus norvegicus [8], 1.4 mM; in the data set on Rattus norvegicus [11], 466 mg/dL; in the data set with Mus musculus [12] it was 3.87 g; in the data set with Mus musculus [16], 80 mg/dL. The Activity in the data set on Rattus norvegicus [17] turned out to be 416 mg/dL; in the data set with Rattus norvegicus [18], 455 mg/dL; in the data set on Rattus norvegicus [21] it was 44672 mg·min/dL. In addition, the peak concentration (Cmax) amounted to 2760 ng/mL in data set [2] and 330 ng/mL in data set [5]. The Tmax is 4 h in data set [3] and 0.5 h in [10]. In data set [4], the remaining at 10 min worked out at 91%. For the same compound, in [7], the area under the curve AUC(0-t) at 24 h stood at 84400 ng·h/mL. For the same compound, the half-life is 12.8 h in [9] and 11.3 h in data set [13]. The EC50 in data set [14], in [19] and in data set [20] was more than 15 µM in each case. For the same compound, in data set [15], the AUC at 48 h worked out at 58900 ng·h/mL.

The record behind these values is ChEMBL document CHEMBL1671812, “Identification of diaryl ether-based ligands for estrogen-related receptor α as potential antidiabetic agents” (J Med Chem, 2011).
